Data taken from patent publication US20240254114A1, “PREPARATION OF FUSED AZOLE DERIVATIVES AS NOVEL DIACYLGLYCERIDE 0-ACYLTRANSFERASE 2 INHIBITORS” (Merck Sharp & Dohme LLC, priority 2022, published 2024).
Read-outs that look alike come from different tables or passages of the source.

Biological target: human DGAT2 (Homo sapiens (Human), UniProt Q96PD7)
Experiment: DGAT2 Enzymatic Activity Assay
Details: 13C18-triolein product by LC/MS/MS
[1] = read-out: Human DGAT2 IC50, hDGAT2 membrane prep from Sf-9 cells
[2] = Human DGAT2 IC50, hDGAT2 membrane prep from Sf-9 cells

Sequence of human DGAT2 (Q96PD7 whole entry): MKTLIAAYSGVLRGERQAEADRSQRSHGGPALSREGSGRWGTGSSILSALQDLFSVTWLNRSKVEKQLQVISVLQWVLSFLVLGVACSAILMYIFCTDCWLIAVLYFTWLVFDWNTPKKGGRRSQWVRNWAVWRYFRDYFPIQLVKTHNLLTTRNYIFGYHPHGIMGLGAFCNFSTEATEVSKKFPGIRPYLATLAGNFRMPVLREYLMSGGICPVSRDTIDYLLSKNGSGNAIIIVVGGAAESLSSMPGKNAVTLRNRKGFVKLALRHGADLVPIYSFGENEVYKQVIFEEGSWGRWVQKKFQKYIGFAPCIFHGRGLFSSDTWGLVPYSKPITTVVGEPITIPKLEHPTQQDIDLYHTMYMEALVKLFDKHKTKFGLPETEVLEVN
Protocol: Sf-9 insect cells were maintained in Grace's insect cell culture medium with 10% heated-inactivated fetal bovine serum, 1% Pluronic F-68 and 0.14 μg/ml Kanamycine sulfate at 27° C. in a shaker incubator. After infection with untagged baculovirus expressing human DGAT2 (hDGAT2) at multiplicity of infection (MOI) 3 for 48 hours, cells were harvested. Cell pellets were suspended in buffer containing 10 mM Tris-HCl pH 7.5, 1 mM EDTA, 250 mM sucrose and Complete Protease Inhibitor Cocktail (Sigma Aldrich), and sonicated on ice. Cell debris were removed by centrifugation at 2000×g for 15 minutes. Membrane fractions were isolated by ultracentrifugation (100,000×g), resuspended in the same buffer, and frozen (−80° C.) for later use. The protein concentration was determined with the Pierce™ BCA Protein Assay Kit (Thermo Fisher Scientific).
LC/MS/MS analyses were performed using Thermal Fisher's LX4-TSQ Vantage system. This system consists of an Agilent binary high-performance liquid chromatography (HPLC) pump and a TSQ Vantage triple quadrupole MS/MS instrument. For each sample, 2 μL samples from the top organic layer of in-plate liquid-liquid extraction were injected onto a Thermo Betabasic C4 column (2.1 mm×20 mm, 5 μm particle size). The samples were then eluted using the following conditions; mobile phase: Isopropanol: acetonitrile/10 mM ammonium formate=50/35/15 (v/v/v), flow rate: 0.8 mL/min, temperature: 25° C. Data was acquired in positive mode using a heated electrospray ionization (HESI) interface. […] The peak area was integrated by Xcalibur Quan software. The ratio between the ^13C18 triolein generated in the reaction and spiked in internal standard ^13C21-triolein was used to generate percentage inhibition and IC50 values. […] DGAT2 activity was determined by measuring the amount of enzymatic product ^13C18-triolein (^13C-1,2,3-Tri(cis-9-octadecenoyl)glycerol) using the membrane prep mentioned above. The assay was carried out in ABgene 384-well assay plates in a final volume of 25 μL at rt.

Compound	IC50 [1]	IC50 [2]
Cn1c(C(=O)NC2(C)CCS(=O)(=O)CC2)nc2ncc(Oc3ncc(F)cc3OCC(F)(F)F)cc21 [Example 83, 6-[[5-fluoro-3-(2,2,2-trifluoroethoxy)-2-pyridyl]oxy]-1-methyl-N-(4-methyl-1,1-dioxo-thian-4-yl)imidazo[4,5-b]pyridine-2-carboxamide]	12 nM	–
Cn1c(C(=O)NC2(C)CCS(=O)(=O)CC2)nc2cnc(Oc3ncc(Cl)cc3OCC(F)F)c(F)c21 [Example 76, 6-[[5-Chloro-3-(2,2-difluoroethoxy)-2-pyridyl]oxy]-7-fluoro-1-methyl-N-(4-methyl-1,1-dioxo-thian-4-yl)imidazo[4,5-c]pyridine-2-carboxamide]	–	3.3 nM
Cc1c(Oc2ncc(Cl)cc2OCC(F)F)ncc2nc(C(=O)NC3(C)CCS(=O)(=O)CC3)n(C)c12 [Example 78, 6-[[5-Chloro-3-(2,2-difluoroethoxy)-2-pyridyl]oxy]-1,7-dimethyl-N-(4-methyl-1,1-dioxo-thian-4-yl)imidazo[4,5-c]pyridine-2-carboxamide]	–	3.9 nM
Cn1c(C(=O)NC2(C)CCS(=O)(=O)CC2)nc2c(F)c(Oc3ncc(Cl)cc3OCC(F)(F)F)ccc21 [Example 22, 5-((5-chloro-3-(2,2,2-trifluoroethoxy)pyridin-2-yl)oxy)-4-fluoro-1-methyl-N-(4-methyl-1,1-dioxidotetrahydro-2H-thiopyran-4-yl)-1H-benzo[d]imidazole-2-carboxamide]	–	604 nM
Cn1c(C(=O)NC2(C)CCS(=O)(=O)CC2)nc2ccc(Oc3ncccc3OCC(F)(F)F)nc21 [Example 34, 3-methyl-N-(4-methyl-1,1-dioxidotetrahydro-2H-thiopyran-4-yl)-5-((3-(2,2,2-trifluoroethoxy)pyridin-2-yl)oxy)-3H-imidazo[4,5-b]pyridine-2-carboxamide]	> 109 nM	–
Cc1nc2nc(C(=O)NC3(C)CCS(=O)(=O)CC3)n(C)c2cc1Oc1ncc(Cl)cc1OCC(F)F [Example 86, 6-[[5-Chloro-3-(2,2-difluoroethoxy)-2-pyridyl]oxy]-1,5-dimethyl-N-(4-methyl-1,1-dioxo-thian-4-yl)imidazo[4,5-b]pyridine-2-carboxamide]	–	39 nM
Cn1c(C(=O)NC2(C)CCS(=O)(=O)CC2)nc2ccc(Oc3ncc(Cl)cc3OCC(F)(F)F)c(Cl)c21 [Example 23, 7-Chloro-6-((5-chloro-3-(2,2,2-trifluoroethoxy)pyridin-2-yl)oxy)-1-methyl-N-(4-methyl-1,1-dioxidotetrahydro-2H-thiopyran-4-yl)-1H-benzo[d]imidazole-2-carboxamide]	–	2.2 nM
Cn1c(C(=O)NC2(C)CCS(=O)(=O)CC2)nc2c(F)cc(Oc3ncc(Cl)cc3OCC(F)F)cc21 [Example 27, 6-((5-chloro-3-(2,2-difluoroethoxy)pyridin-2-yl)oxy)-4-fluoro-1-methyl-N-(4-methyl-1,1-dioxidotetrahydro-2H-thiopyran-4-yl)-1H-benzo[d]imidazole-2-carboxamide]	–	2.7 nM
CC1(NC(=O)c2nc3ccc(Oc4ncc(Cl)cc4OCC(F)F)nc3s2)CS(=O)(=O)C1 [Example 95]	10 nM	–
Cn1c(C(=O)NC2(C)CCS(=O)(=O)CC2)nc2ccc(OCC(OCC(F)F)C(F)F)nc21 (single isomer, unassigned) [Example 65b, 5-[2-(2,2-difluoroethoxy)-3,3-difluoro-propoxy]-3-methyl-N-(4-methyl-1,1-dioxo-thian-4-yl)imidazo[4,5-b]pyridine-2-carboxamide]	–	2.8 nM
Cn1c(C(=O)NC2(C)CCS(=O)(=O)CC2)nc2ncc(Oc3ncc(Cl)cc3OCC(F)F)nc21 [Example 90, 6-((5-Chloro-3-(2,2-difluoroethoxy)pyridin-2-yl)oxy)-1-methyl-N-(4-methyl-1,1-dioxidotetrahydro-2H-thiopyran-4-yl)-1H-imidazo[4,5-b]pyrazine-2-carboxamide]	–	4.1 nM
Cn1c(C(=O)NC2(C)CCS(=O)(=O)CC2)nc2ccc(OCC(OCC(F)F)C(F)(F)F)nc21 (single isomer, unassigned) [Example 64a, 5-[2-(2,2-difluoroethoxy)-3,3,3-trifluoro-propoxy]-3-methyl-N-(4-methyl-1,1-dioxo-thian-4-yl)imidazo[4,5-b]pyridine-2-carboxamide]	–	1650 nM
Cc1cc2nc(C(=O)NC3(C)CCS(=O)(=O)CC3)n(C)c2nc1Oc1ncc(F)cc1OCC(F)(F)F [Example 46, 5-((5-fluoro-3-(2,2,2-trifluoroethoxy)pyridin-2-yl)oxy)-3,6-dimethyl-N-(4-methyl-1,1-dioxido-tetrahydro-2H-thiopyran-4-yl)-3H-imidazo[4,5-b]pyridine-2-carboxamide]	6.3 nM	–
CC1(NC(=O)c2nc3ccc(Oc4ncc(Cl)cc4OCC(F)(F)F)cc3o2)CC(F)(F)C1 [Example 4]	236 nM	–
Cc1c(Oc2ncc(F)cc2OCC(F)(F)F)ncc2nc(C(=O)NC3(C)CCS(=O)(=O)CC3)n(C)c12 [Example 79, 6-[[5-fluoro-3-(2,2,2-trifluoroethoxy)-2-pyridyl]oxy]-1,7-dimethyl-N-(4-methyl-1,1-dioxo-thian-4-yl)imidazo[4,5-c]pyridine-2-carboxamide]	58 nM	–
Cn1c(C(=O)NC2(C)CCS(=O)(=O)CC2)nc2cnc(Oc3ncc(Cl)cc3OCC(F)F)nc21 [Example 88, 2-[[5-Chloro-3-(2,2-difluoroethoxy)-2-pyridyl]oxy]-9-methyl-N-(4-methyl-1,1-dioxo-thian-4-yl)purine-8-carboxamide]	–	58 nM
CC1(NC(=O)c2nc3ccc(Oc4ncc(Cl)cc4OCC(F)F)nc3n2CC(F)F)CCS(=O)(=O)CC1 [Example 54, 5-((5-chloro-3-(2,2-difluoroethoxy)pyridin-2-yl)oxy)-3-(2,2-difluoroethyl)-N-(4-methyl-1,1-dioxidotetrahydro-2H-thiopyran-4-yl)-3H-imidazo[4,5-b]pyridine-2-carboxamide]	0.6 nM	–
CC1(NC(=O)c2nc3ccc(Oc4ncc(Cl)cc4OCC(F)F)nc3[nH]2)CCS(=O)(=O)CC1 [Example 50, 5-((5-chloro-3-(2,2-difluoroethoxy)pyridin-2-yl)oxy)-N-(4-methyl-1,1-dioxidotetrahydro-2H-thiopyran-4-yl)-3H-imidazo[4,5-b]pyridine-2-carboxamide]	–	15 nM
Cn1c(C(=O)NC2(C)CCS(=O)(=O)CC2)nc2cnc(Oc3ncc(F)cc3OCC(F)F)cc21 [Example 72, 6-[[3-(2,2-difluoroethoxy)-5-fluoro-2-pyridyl]oxy]-1-methyl-N-(4-methyl-1,1-dioxo-thian-4-yl)imidazo[4,5-c]pyridine-2-carboxamide]	6.9 nM	–
CO[C@]1(C(F)(F)F)C[C@H](NC(=O)c2nc3ccc(Oc4ncc(Cl)cc4OCC(F)(F)F)cc3o2)C1 [Example 6, 6-[[5-chloro-3-(2,2,2-trifluoroethoxy)-2-pyridyl]oxy]-N-[3-methoxy-3-(trifluoromethyl)cyclobutyl]-1,3-benzoxazole-2-carboxamide]	900 nM	–
Cn1c(C(=O)NC2(C)CCS(=O)(=O)CC2)nc2ccc(Oc3nccnc3OCC(F)F)nc21 [Example 38, 5-[3-(2,2-difluoroethoxy)pyrazin-2-yl]oxy-3-methyl-N-(4-methyl-1,1-dioxo-thian-4-yl)imidazo[4,5-b]pyridine-2-carboxamide]	20 nM	–
CC1(NC(=O)c2nc3ccc(Oc4ncc(Cl)cc4OCC(F)F)nc3n2CC2(F)COC2)CCS(=O)(=O)CC1 [Example 57, 5-((5-chloro-3-(2,2-difluoroethoxy)pyridin-2-yl)oxy)-3-((3-fluorooxetan-3-yl)methyl)-N-(4-methyl-1,1-dioxidotetrahydro-2H-thiopyran-4-yl)-3H-imidazo[4,5-b]pyridine-2-carboxamide]	183 nM	–
Cn1c(C(=O)NC2(C)CS(=O)(=O)C2)nc2ccc(Oc3ncc(F)cc3OCC(F)F)nc21 [Example 36, 5-[[3-(2,2-difluoroethoxy)-5-fluoro-2-pyridyl]oxy]-3-methyl-N-(3-methyl-1,1-dioxo-thietan-3-yl)imidazo[4,5-b]pyridine-2-carboxamide]	42 nM	–
Cc1cc(Oc2ncc(Cl)cc2OCC(F)F)nc2c1nc(C(=O)NC1(C)CCS(=O)(=O)CC1)n2C [Example 49, 5-[[5-chloro-3-(2,2-difluoroethoxy)-2-pyridyl]oxy]-3,7-dimethyl-N-(4-methyl-1,1-dioxo-thian-4-yl)imidazo[4,5-b]pyridin-4-ium-2-carboxamide]	–	4.4 nM
Cn1c(C(=O)NC2(C)CCS(=O)(=O)CC2)nc2ccc(OCC(CC(F)(F)F)OC(F)F)nc21 (single isomer, unassigned) [Example 62b, 5-[2-(difluoromethoxy)-4,4,4-trifluoro-butoxy]-3-methyl-N-(4-methyl-1,1-dioxo-thian-4-yl)imidazo[4,5-b]pyridine-2-carboxamide]	–	163 nM
CCC(COc1ccc2nc(C(=O)NC3(C)CCS(=O)(=O)CC3)n(C)c2n1)OCC(C)(F)F (centres unmarked) [Example 61, 5-[2-(2,2-difluoropropoxy)butoxy]-3-methyl-N-(4-methyl-1,1-dioxo-thian-4-yl)imidazo[4,5-b]pyridine-2-carboxamide]	44 nM	–
Cn1c(C(=O)NC2(C)CCS(=O)(=O)CC2)nc2cc(Oc3ncccc3OCC(F)(F)F)ccc21 [Example 12, 1-Methyl-N-(4-methyl-1,1-dioxidotetrahydro-2H-thiopyran-4-yl)-5-((3-(2,2,2-trifluoroethoxy)pyridin-2-yl)oxy)-1H-benzo[d]imidazole-2-carboxamide]	–	694 nM
O=C(N[C@H]1CCCC(F)(F)[C@@H]1O)c1nc2ccc(Oc3ncc(Cl)cc3OCC(F)F)nc2s1 [Example 96, 5-((5-chloro-3-(2,2-difluoroethoxy)pyridin-2-yl)oxy)-N-((1S,2R)-3,3-difluoro-2-hydroxycyclohex-yl)thiazolo[5,4-b]pyridine-2-carboxamide]	3.3 nM	–
Cc1cc2nc(C(=O)NC3(C)CCS(=O)(=O)CC3)n(C)c2nc1Oc1ncc(Cl)cc1OCC(F)F [Example 45, 5-((5-chloro-3-(2,2-difluoroethoxy)pyridin-2-yl)oxy)-3,6-dimethyl-N-(4-methyl-1,1-dioxidotetrahydro-2H-thiopyran-4-yl)-3H-imidazo[4,5-b]pyridine-2-carboxamide]	–	2.2 nM
